Assay results reported in patent US20260364184A1, “COMPOUND BASED ON OXOISOINDOLINYL-SUBSTITUTED TETRAHYDROPYRIMIDINE-DIONE AND USE THEREOF” (GLUETACS THERAPEUTICS (SHANGHAI) CO., LTD., priority 2023, published 2026).

Assays:
[1] = biological target: T1, human Cereblon WT GST-tagged protein (CRBN) (Homo sapiens, UniProt Q96SW2); assay: CRBN binding by HTRF (Cereblon binding kit); details: for inhibition at 0.5 µM: read-out: Inhibition Rate at 0.5 μM (%); for inhibition at 2 µM: read-out: Inhibition Rate at 2 μM (%)
T1 construct: purchased CISBIO 64BDCRBNPEH
T1 sequence (Q96SW2 whole entry): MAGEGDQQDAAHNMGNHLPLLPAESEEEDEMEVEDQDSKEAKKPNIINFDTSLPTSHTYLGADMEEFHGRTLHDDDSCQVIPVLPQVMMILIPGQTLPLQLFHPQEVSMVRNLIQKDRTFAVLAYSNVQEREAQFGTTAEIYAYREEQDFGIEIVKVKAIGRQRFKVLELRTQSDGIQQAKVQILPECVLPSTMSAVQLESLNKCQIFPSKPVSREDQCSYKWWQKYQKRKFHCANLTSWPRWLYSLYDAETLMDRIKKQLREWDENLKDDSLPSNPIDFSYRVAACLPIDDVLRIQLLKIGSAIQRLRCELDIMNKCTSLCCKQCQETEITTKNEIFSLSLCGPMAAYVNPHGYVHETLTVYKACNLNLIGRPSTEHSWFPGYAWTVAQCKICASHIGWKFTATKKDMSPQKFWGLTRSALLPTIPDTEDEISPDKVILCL
Protocol: The CEREBLON BINDING kits (specification: 10,000 tests; product number: Catalog #64BDCRBNPEH; CISBIO company) was used to determine the CRBN binding ability of the compounds to be tested through a HTRF method (homogeneous time-resolved fluorescence). The specific methods are as follows: • 1. According to the instructions of the CEREBLON BINDING KITS, serial dilutions were performed for the test compounds of the present disclosure (including the compounds in Table 1, Table 2, and Examples 1-468) and for lenalidomide. Specifically, diluent #9 (1×) solution was used as the diluent, and multiple concentration gradients were set. The dilution operation can be performed according to one of the following two methods: • (1) The first dilution method: The test compounds of the present disclosure (including the compounds in Table 1, Table 2, and Examples 1-468) were subjected to 5-fold serial dilutions starting from a highest concentration of 40 μM, resulting in a total of 7 concentrations from high to low (40, 8, 1.6, 0.32, 0.064, 0.0128, 0.00256 μM). Subsequently, the diluted test compounds and corresponding detection reagents were added to each well of a 96-well plate, resulting in final test compound concentrations of 10, 2, 0.4, 0.08, 0.016, 0.0032, and 0.00064 μM, respectively. • (2) As an alternative, a second dilution method can be used: The test compounds of the present disclosure (including the compounds in Table 1, Table 2, and Examples 1-468) were subjected to 4-fold gradient dilutions starting from a highest concentration of 8 μM, resulting in 2 concentrations (8 μM, 2 μM). Into the 96-well plate, the diluted test compounds and corresponding detection reagents were added, resulting in final test compound concentrations of 2 μM and 0.5 μM, respectively. The experimental procedure is described below using the diluted 8 μM test compound and lenalidomide solutions as examples. • 2. 2.5 μL of the above 8 μM of the tested compounds and lenalidomide solution, as well as the same volume of diluent #9 (1×) solution (solvent control group, Std0) were added to each well of a 96-well plate, respectively. Then, 2.5 μL of human Cereblon WT GST-tagged protein solution was added to each well. Finally, 5 μL of the thoroughly mixed Thalidomide-Re reagent and GST Eu antibody working solution were added to each of the aforementioned wells. The final concentration of the tested compounds and lenalidomide in each well was 2 μM. • 3. The blank control wells were sequentially added with 2.5 μL of diluent #9 (1×) solution, 2.5 μL of PROTAC binding buffer, and 5 μL of thoroughly mixed Thalidomide-Re reagent and GST Eu antibody working solution. • 4. After sealing and incubating the solutions in the aforementioned wells at room temperature for 3 hours, the absorbance values at emission wavelengths of 620 nm and 665 nm were detected by the HTRF method using a Spark microplate reader (V3.1 SP1).
The corresponding CRBN binding inhibition rate was calculated using the following method:
Rcompound=OD 665 nmcompound/OD 620 nmcompound−OD 665 nmcontrol/OD 620 nmcontrol
RStd0=OD 665 nmStd0/OD 620 nmStd0−OD 665 nmcontrol/OD 620 nmcontrol inhibition rate (%)=(1−Rcompound/RStd0)*100
Note: OD 665 nmcompound is the absorbance value of each well of the compounds to be tested of the present disclosure at an emission wavelength of 665 nm. OD 620 nmcompound is the absorbance value of each well of the compounds to be tested of the present disclosure at an emission wavelength of 620 nm. OD 665 nmcontrol is the absorbance value of the blank control well at an emission wavelength of 665 nm. OD 620 nmcontrol is the absorbance value of the blank control well at an emission wavelength of 620 nm. OD 665 nmStd0 is the absorbance value of the solvent control well at an emission wavelength of 665 nm. OD 620 nmStd0 is the absorbance value of the solvent control well at an emission wavelength of 620 nm.

IRAK4 = biological target: T2, IRAK4 (Homo sapiens, UniProt Q9NWZ3); assay: Western blot degradation of IRAK4; assay type: cell-based; details: hPBMC Cell; 24 hours
T2 construct: expression of target proteins in cells; endogenous in cells
T2 sequence (Q9NWZ3 1-460): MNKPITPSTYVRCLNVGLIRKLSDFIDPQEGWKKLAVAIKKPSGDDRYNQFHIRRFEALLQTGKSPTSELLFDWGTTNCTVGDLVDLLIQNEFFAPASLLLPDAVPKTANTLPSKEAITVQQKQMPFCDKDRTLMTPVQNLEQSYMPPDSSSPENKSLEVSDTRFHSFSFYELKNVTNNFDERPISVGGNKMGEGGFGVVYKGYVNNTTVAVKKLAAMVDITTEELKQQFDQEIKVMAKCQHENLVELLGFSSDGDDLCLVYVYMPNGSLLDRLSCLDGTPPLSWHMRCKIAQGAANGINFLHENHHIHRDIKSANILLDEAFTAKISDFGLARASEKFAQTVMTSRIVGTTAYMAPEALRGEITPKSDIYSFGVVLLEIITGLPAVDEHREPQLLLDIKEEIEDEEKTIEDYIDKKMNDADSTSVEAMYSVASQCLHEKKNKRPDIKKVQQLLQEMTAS
Method in brief: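 Immunoblot of drug-treated versus DMSO-treated cell lysates, with densitometric quantification. Values: DC50 (50% band loss, fitted) and loading-control-normalised % remaining or degradation.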

[2] = tested on: Human myeloid monocytic leukemia cell line (MV-4-11); assay: Inhibition of MV-4-11 cell proliferation (CellTiter luminescent viability); assay type: cell-based; details: Homo sapiens, MV4-11, Table IG2, FAK inhibitor-based, 96 hours
Method in brief: (§1)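 IC50 is fitted from luminescent viability (CellTiter-Meiluncell) curves. Nine-point, 5-fold dilution series (top stock 2000 μM) are added at 0.5 μL per 100 μL medium to cells plated the day before, with growth at 37 °C and 5% CO2.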

[3] = tested on: Human Multiple myeloma cell line (MM.1S); assay: Inhibition of MM.1S cell proliferation (CellTiter luminescent viability); assay type: cell-based; details: Homo sapiens, MM1.S, Table IG1, FAK inhibitor-based, 96 hours
Method in brief: as §1

Structure (SMILES) | inhibition at 0.5 µM ([1]; 0.5 μM) [%] | inhibition at 2 µM ([1]; 2 μM) [%] | further results
CN(C)C(=O)c1cc2cnc(Nc3ccc(N4CCC(CN5CC6CC(C5)N6c5ccc6c(c5)C(=O)N(N5CCC(=O)NC5=O)C6=O)CC4)cn3)nc2n1C1CCCC1 [GT-05201, 7-cyclopentyl-2-((5-(4-((6-(2-(2,4-dioxotetrahydropyrimidin-1(2H)-yl)-1,3-dioxoisoindolin-5-yl)-3,6-diazabicyclo[3.1.1]heptan-3-yl)methyl)piperidin-1-yl)pyridin-2-yl)amino)-N,N-dimethyl-7H-pyrrolo[2,3-d]pyrimidine-6-carboxamide] | – | – | Inhibition Rate at 0.5 μM (%) ([1]; 0.5 μM): a3 (30% < a3 ≤ 40%); Inhibition Rate at 2 μM (%) ([1]; 2 μM): a5 (53% < a5 ≤ 60%)
O=C1CCN(N2C(=O)c3ccc(N4CC5CCC4CN5C[C@H]4CC[C@H](n5cc(NC(=O)c6cnn7ccc(N8C[C@H]9C[C@@H]8CO9)nc67)c(C(F)F)n5)CC4)cc3C2=O)C(=O)N1 [GT-05833, 5-((1R,4R)-2-oxa-5-azabicyclo[2.2.1]heptan-5-yl)-N-(3-(difluoromethyl)-1-((1r,4R)-4-((5-(2-(2,4-dioxotetrahydropyrimidin-1(2H)-yl)-1,3-dioxoisoindolin-5-yl)-2,5-diazabicyclo[2.2.2]octan-2-yl)methyl)cyclohexyl)-1H-pyrazol-4-yl)pyrazolo[1,5-a]pyrimidine-3-carboxamide] | 40 to 53 | 60 to 80 | Degradation of substrate protein IRAK4 (substrate protein remaining %) (IRAK4): A (0%≤substrate protein remaining %≤80%)
CNC(=O)c1ccccc1Nc1cc(Nc2ccc(N3CCN(Cc4ccc5c(c4)CN(N4CCC(=O)NC4=O)C5=O)CC3)cc2OC)ncc1C(F)(F)F [GT-07660, 2-((2-((4-(4-((2-(2,4-dioxotetrahydropyrimidin-1(2H)-yl)-1-oxoisoindolin-5-yl)methyl)piperazin-1-yl)-2-methoxyphenyl)amino)-5-(trifluoromethyl)pyridin-4-yl)amino)-N-methylbenzamide] | 30 to 40 | 60 to 80 | inhibition at 0.01 µM ([2]; MV-4-11, 10 nM, read-out: Inhibition Rate at 10 nM (%)): 50 to 60%; inhibition at 0.5 µM ([2]; MV-4-11, 500 nM, read-out: Inhibition Rate at 500 nM (%)): 80 to 100%; inhibition at 0.01 µM ([3]; 10 nM, read-out: Inhibition Rate at 10 nM (%)): 15 to 20%; inhibition at 0.5 µM ([3]; 500 nM, read-out: Inhibition Rate at 500 nM (%)): 60 to 80%
CN(Cc1ccc(-c2[nH]c3cc(F)cc4c3c2CCNC4=O)cc1)Cc1ccc2c(c1)CN(N1CCC(=O)NC1=O)C2=O [GT-08403, 1-(5-(((4-(8-fluoro-1-oxo-2,3,4,6-tetrahydro-1H-azepino[5,4,3-cd]indol-5-yl)benzyl)(methyl)amino)methyl)-1-oxoisoindolin-2-yl)dihydropyrimidine-2,4(1H,3H)-dione] | 20 to 30 | 53 to 60 | –
Cc1cc(-c2ccc3c4cnccc4n(C)c3c2)cnc1N1CCN(Cc2ccc3c(c2)CN(N2CCC(=O)NC2=O)C3=O)CC1 [GT-08540, 1-(5-((4-(3-methyl-5-(5-methyl-5H-pyrido[4,3-b]indol-7-yl)pyridin-2-yl)piperazin-1-yl)methyl)-1-oxoisoindolin-2-yl)dihydropyrimidine-2,4 (1H,3H)-dione] | 10 to 20 | 53 to 60 | –
Cn1c2ccncc2c2ccc(-c3cnc(N4CCN(Cc5ccc6c(c5)CN(N5CCC(=O)NC5=O)C6=O)CC4)c(Cl)c3)cc21 [GT-08541, 1-(5-((4-(3-chloro-5-(5-methyl-5H-pyrido[4,3-b]indol-7-yl)pyridin-2-yl)piperazin-1-yl)methyl)-1-oxoisoindolin-2-yl)dihydropyrimidine-2,4 (1H,3H)-dione] | 30 to 40 | 60 to 80 | –
O=C1CCN(N2Cc3cc(CN4CCN(c5ccn6c(n5)nc5ccccc56)CC4)ccc3C2=O)C(=O)N1 [GT-08565, 1-(5-((4-(benzo[4,5]imidazo[1,2-a]pyrimidin-2-yl)piperazin-1-yl)methyl)-1-oxoisoindolin-2-yl)dihydropyrimidine-2,4 (1H,3H)-dione] | 10 to 20 | 60 to 80 | –
Cn1ncc(Cl)c1-c1cc(C(=O)N[C@H](CNCC2CCN(c3cccc4c3C(=O)N(N3CCC(=O)NC3=O)C4=O)CC2)Cc2cccc(F)c2)sc1Cl [GT-08587, (S)-5-chloro-4-(4-chloro-1-methyl-1H-pyrazol-5-yl)-N-(1-(((1-(2-(2,4-dioxotetrahydropyrimidin-1(2H)-yl)-1,3-dioxoisoindolin-4-yl)piperidin-4-yl)methyl)amino)-3-(3-fluorophenyl)propan-2-yl)thiophene-2-carboxamide] | 10 to 20 | 53 to 60 | –
O=C1CCN(N2C(=O)c3ccc(N4CC5CCC4CN5CC4CCN(c5ccn6c(n5)nc5ccccc56)CC4)cc3C2=O)C(=O)N1 (centres unmarked) [GT-08828, 5-(5-((1-(benzo[4,5]imidazo[1,2-a]pyrimidin-2-yl)piperidin-4-yl)methyl)-2,5-diazabicyclo[2.2.2]octan-2-yl)-2-(2,4-dioxotetrahydropyrimidin-1(2H)-yl)isoindoline-1,3-dione] | 20 to 30 | 53 to 60 | –
